Laboratory results: US20020045254A1, “Established cells” (priority 1998, published 2002)

Key:
GLUT-1 transport carrier = biological target: T1, GLUT-1 transport carrier (Rattus norvegicus, UniProt P11167); test: 3-OMG uptake by TR-BBB cell lines (glucose transport capability); assay type: in vitro ADME
T1 construct: endogenous in cells; host or cells: TR-BBB1, TR-BBB5, TR-BBB6, TR-BBB11, TR-BBB13, immortalized rat brain capillary endothelial cells
T1 sequence (P11167 1-492): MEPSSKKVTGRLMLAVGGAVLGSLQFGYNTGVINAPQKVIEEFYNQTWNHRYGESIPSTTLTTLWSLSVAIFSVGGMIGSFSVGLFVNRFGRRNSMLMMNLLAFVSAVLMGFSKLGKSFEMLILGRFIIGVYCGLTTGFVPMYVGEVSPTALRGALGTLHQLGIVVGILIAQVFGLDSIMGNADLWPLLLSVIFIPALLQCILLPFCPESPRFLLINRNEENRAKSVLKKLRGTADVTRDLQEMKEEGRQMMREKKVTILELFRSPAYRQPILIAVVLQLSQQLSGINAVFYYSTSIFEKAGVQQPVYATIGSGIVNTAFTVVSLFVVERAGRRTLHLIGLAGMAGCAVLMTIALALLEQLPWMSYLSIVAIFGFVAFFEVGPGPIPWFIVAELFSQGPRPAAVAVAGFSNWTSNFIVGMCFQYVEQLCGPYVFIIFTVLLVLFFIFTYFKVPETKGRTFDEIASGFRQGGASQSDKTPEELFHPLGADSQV

GLUT-1 transporter = biological target: T2, GLUT-1 transporter (Rattus norvegicus, UniProt P11167); test: 3-OMG uptake by TR-iBRB2 cells (glucose transport capability); assay type: in vitro ADME
T2 construct: endogenous in cells; host or cells: TR-iBRB2, immortalized rat retinal capillary endothelial cells (tsA58 SV40 large T transgenic rat)
T2 sequence (P11167 1-492): T1 sequence (P11167 1-492)
Description: The 3-OMG uptake was determined according to the following procedure. After removing medium by aspiration, 0.2 mL of an uptake buffer containing 232 kBq/mL of [^3H]3-OMG heated to 37° C. was added. […] After 10 seconds, the uptake buffer (1) was removed and the residue was washed with the uptake buffer (1) at 4° C. The same procedure was repeated except for changing the period of time before removing the uptake buffer (1) to 20 seconds, 30 seconds, or one minutes. The cells were solubilized in 1 mL of PBS containing 1% Triton X-100 and the radioactivity was measured using a liquid scintillation counter to confirm the linearity of the 3-OMG uptake capability. As a result, an uptake time of 20 seconds was set.
Next, the substrate concentration dependency of the 3-OMG uptake capability was examined. After washing the cells with the uptake buffer (1) heated to 37° C., 0.2 mL of the uptake buffer (1) containing 462 kBq/well of [^3H]3-OMG was added. Solutions containing 3-OMG at different concentrations were prepared by adding non-labeled 3-OMG to the uptake buffer (1) to make final concentrations of 0, 0.5, 1, 5, 10, 20, 30, and 50 mM. […] Next, the cells were solubilized overnight in 1 mL of PBS containing 1% Triton X-100 and the radioactivity was measured using a liquid scintillation counter.

TR-CSFB3 cells [1] = test: Inhibition of L-proline uptake of TR-CSFB3 cells by Na+-free (choline) buffer and ouabain; assay type: cell-based, rat; details: 30 minutes
Description: The L-proline uptake into the isolated choroid plexus is dependent on Na^+. […] However, because the experiment must be carried out under Na^+-free conditions, all Na^+ in the uptake buffer (1) was replaced with coline. […] Both reactions were carried out for 30 minutes. It was confirmed that L-proline uptake was inhibited as much as 98% under Na^+-free conditions. It was confirmed that 56% of L-proline uptake was inhibited by 1 mM ouabain. As a result, the L-proline uptake of TR-CSFB3 cells was confirmed to be Na^+-dependent.

rabbit choroid plexus = details: read-out: Km value from rabbit choroid plexus; L-proline, Coben L. A. et al. (1972); cited from earlier work
TR-CSFB3 cells [2] = system: TR-CSFB3 cells
Description: The concentration dependency of the resulting cells on the L-proline transport was examined to determine the L-proline transport capability.
After the uptake reaction for 30 minutes and washing three times with PBS, 1 mL of PBS containing 1% Triton X-100 was added and the mixture was allowed to stand overnight to solubilize the cells. The radioactivity was measured using a liquid scintillation counter (LS-6500 made by Beckmann Co.).

With 3-o-methyl-D-glucose [3-OMG] the Initial uptake rate (GLUT-1 transport carrier; TR-BBB1 cells) was 8.12 ± 0.62 μ1/min/mg protein, the Initial uptake rate (GLUT-1 transport carrier; TR-BBB5 cells) was 10.1 ± 1.32 μ1/min/mg protein and the Initial uptake rate (GLUT-1 transport carrier; TR-BBB6 cells) was 7.07 ± 0.92 μ1/min/mg protein. For the same molecule, the Initial uptake rate (GLUT-1 transport carrier; TR-BBB11 cells) was 10.2 ± 0.62 μ1/min/mg protein, the Initial uptake rate (GLUT-1 transport carrier; TR-BBB13 cells) was 8.96 ± 0.50 μ1/min/mg protein and the “initial uptake rate of [3H]3-OMG” value (GLUT-1 transport carrier; span over TR-BBB1, TR-BBB5, TR-BBB6, TR-BBB11 and TR-BBB13 cells) was 7.07-10.2 μl/min/mg protein. The “maximum velocity constant (Vmax) of 3-OMG uptake” value (GLUT-1 transporter; 20 seconds uptake, 37° C., 0-50 mM 3-OMG) was 45 nmol/min/mg protein and the Km (GLUT-1 transporter; read-out: Michaelis constant (Km) of 3-OMG uptake, 20 seconds uptake, 37° C., 0-50 mM 3-OMG) was 5600 µM.

In the case of `O=C(O)[C@@H]1CCCN1` [L-proline], the “inhibition of L-proline uptake under Na+-free conditions” value (TR-CSFB3 cells [1]; all Na+ in uptake buffer replaced with choline) is listed as 98%, the Km (rabbit choroid plexus) is listed as 1100 µM and the “Vmax of L-proline uptake” value (TR-CSFB3 cells [2]; 30 minutes uptake, 0.005-20 mM L-proline) is listed as 2.4 nmol/min/mg protein. The Km (TR-CSFB3 cells [2]; read-out: Km of L-proline uptake, 30 minutes uptake, 0.005-20 mM L-proline) was 1500 µM.

With `C[C@@H]1O[C@@H](O[C@H]2C[C@@H](O)[C@]3(CO)[C@H]4[C@H](O)C[C@]5(C)[C@@H](C6=CC(=O)OC6)CC[C@]5(O)[C@@H]4CC[C@]3(O)C2)[C@H](O)[C@H](O)[C@H]1O` [ouabain] the inhibition at 1000 µM (TR-CSFB3 cells [1]; Rattus norvegicus, 0.5 h, 1 mM ouabain) was 56%.
